Reference: ChEMBL document CHEMBL1135902, “Molecular interaction of the antagonist N-(piperidin-1-yl)-5-(4-chlorophenyl)-1- (2,4-dichlorophenyl)-4-methyl-1H-pyrazole-3-carboxamide with the CB1 cannabinoid receptor” (J Med Chem, 2002)

Target: Cannabinoid receptor 1 (Rattus norvegicus, UniProt P20272)
Type: cell membranes, Brain, Brain membranes
Description: Inhibition of [3H]CP-55940 binding to cannabinoid receptor 1 in rat brain membranes.

Cannabinoid receptor 1, sequence (P20272 whole entry): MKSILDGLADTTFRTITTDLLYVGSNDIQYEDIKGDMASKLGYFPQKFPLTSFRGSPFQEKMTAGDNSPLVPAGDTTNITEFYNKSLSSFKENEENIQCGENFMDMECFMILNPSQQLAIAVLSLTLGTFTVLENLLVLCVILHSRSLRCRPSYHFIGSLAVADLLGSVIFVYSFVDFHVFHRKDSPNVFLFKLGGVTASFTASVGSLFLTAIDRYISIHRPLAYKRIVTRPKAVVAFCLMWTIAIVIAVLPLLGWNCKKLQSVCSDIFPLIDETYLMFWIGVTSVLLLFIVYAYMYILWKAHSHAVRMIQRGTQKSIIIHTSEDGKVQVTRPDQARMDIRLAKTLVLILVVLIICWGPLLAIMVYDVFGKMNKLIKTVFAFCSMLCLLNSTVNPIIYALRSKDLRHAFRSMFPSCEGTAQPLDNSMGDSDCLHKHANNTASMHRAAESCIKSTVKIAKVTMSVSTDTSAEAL

Ki [µM]	SMILES
0.1	Cc1c(COCC2CCCCC2)nn(-c2ccc(Cl)cc2Cl)c1-c1ccc(Cl)cc1
0.746	O=C(NN1CCCCC1)c1nn(-c2ccc(Cl)cc2Cl)c2c(Cl)cccc12
0.109	Cc1c(C(=O)NN2CCCCC2)nn(-c2ccc([N+](=O)[O-])cc2)c1-c1ccc(Cl)cc1
0.019	Cc1c(C(=O)NN2CCOCC2)nn(-c2ccc(Cl)cc2Cl)c1-c1ccc(Br)cc1
0.056	Cc1c(C(=O)N(C)C2CCCCC2)nn(-c2ccc(Cl)cc2Cl)c1-c1ccc(Br)cc1
0.007	CC(=O)c1ccc(-c2c(C#N)c(C(=O)Nc3ccccc3)nn2-c2ccccc2Cl)cc1
0.015	Cc1c(C(=O)NC2CCCCC2)nn(-c2ccc(Cl)cc2Cl)c1-c1ccc(Br)cc1
0.0171	Cc1c(C(=O)NN2CCCC2)nn(-c2ccc(Cl)cc2Cl)c1-c1ccc(Br)cc1
0.165	Cc1c(C(=O)NCCO)nn(-c2ccc(Cl)cc2Cl)c1-c1ccc(Br)cc1
0.072	Cc1c(C(=O)NN2CCCCC2)nn(-c2ccc(N)cc2)c1-c1ccc(Cl)cc1
0.037	CCC(C)c1ccc(-n2nc(C(=O)NN3CCCCC3)c(C)c2-c2ccc(Cl)cc2)cc1 (configuration not stated)
0.232	Cc1c(COCCN2CCCCC2)nn(-c2ccc(Cl)cc2Cl)c1-c1ccc(Cl)cc1
0.055	Cc1c(C(=O)NN2CCCCC2)nn(-c2ccc(Cl)cc2)c1-c1ccc(Cl)cc1
0.006	Cc1c(COCc2ccc(F)cc2)nn(-c2ccc(Cl)cc2Cl)c1-c1ccc(Cl)cc1

Continued, compound first:

SMILES	Ki [µM]
CCCCn1nc(C(=O)NN2CCCCC2)c(C)c1-c1ccccc1	0.187
CCCCc1ccc(-n2nc(C(=O)NN3CCCCC3)c(C)c2-c2ccc(Cl)cc2)cc1	0.256
CCCCCn1nc(C(=O)NN2CCCCC2)c(C)c1-c1ccccc1	0.023
CCCCCc1ccc(-c2c(C)c(C(=O)NN3CCCCC3)nn2-c2ccc(Cl)cc2Cl)cc1	0.001
CCCCCCCn1nc(C(=O)NN2CCCCC2)c(C)c1-c1ccccc1	0.047
CCCCCCCNC(=O)c1nn(-c2ccc(Cl)cc2Cl)c(-c2ccc(Cl)cc2)c1C	0.003
CCCCCC(=O)c1nn(-c2ccc(Cl)cc2Cl)c(-c2ccc(Cl)cc2)c1C	0.025
CCCCCNC(=O)c1nn(-c2ccc(Cl)cc2Cl)c(-c2ccc(Cl)cc2)c1C	0.003
O=C(NN1CCCCC1)c1nn(-c2ccc(Cl)cc2Cl)c2c([N+](=O)[O-])cccc12	0.202
CCCCCn1nc(C(=O)NN2CCCCC2)c(C)c1-c1ccc(Br)cc1	0.063
CCCCCc1ccc(-n2nc(C(=O)NN3CCCCC3)c(C)c2-c2ccc(Cl)cc2)cc1	1.36
CCCCCCn1nc(C(=O)NN2CCCCC2)c(C)c1-c1ccccc1	0.021
Cc1c(C(=O)NN2CCCCC2)nn(C2CCCCC2)c1-c1ccccc1	0.391
